The source of these data is ChEMBL document CHEMBL1139921, “Synthesis and biological activity of 2-alkylbenzimidazoles bearing a N-phenylpyrrole moiety as novel angiotensin II AT1 receptor antagonists” (Bioorg Med Chem Lett, 2007).

A word on the IC50: it is the concentration that inhibits the measured activity by half. Low values mean higher potency, high ones lower potency.

Experiment [1] has as its target T1, Type-1 angiotensin II receptor (Oryctolagus cuniculus, UniProt P34976).
T1 sequence (P34976 whole entry): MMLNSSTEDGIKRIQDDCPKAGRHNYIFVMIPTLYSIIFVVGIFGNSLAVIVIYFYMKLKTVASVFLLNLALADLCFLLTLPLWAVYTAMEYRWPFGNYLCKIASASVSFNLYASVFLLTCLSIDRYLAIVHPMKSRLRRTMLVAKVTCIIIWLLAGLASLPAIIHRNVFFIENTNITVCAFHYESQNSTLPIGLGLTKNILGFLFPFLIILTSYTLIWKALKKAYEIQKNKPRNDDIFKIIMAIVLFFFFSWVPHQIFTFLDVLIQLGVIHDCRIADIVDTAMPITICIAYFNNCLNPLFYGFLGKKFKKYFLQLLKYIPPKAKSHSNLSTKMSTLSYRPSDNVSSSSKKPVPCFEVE
Kind of experiment: Antagonist activity at AT1 receptor assessed inhibition of angiotensin-2-induced contraction of rabbit thoracic aortic rings. The conditions noted are these: read-out: pA2 (converted). The format is functional.

Experiment [2] has as its target T2, Type-1 angiotensin II receptor (Bos taurus, UniProt P25104).
T2 sequence (P25104 whole entry): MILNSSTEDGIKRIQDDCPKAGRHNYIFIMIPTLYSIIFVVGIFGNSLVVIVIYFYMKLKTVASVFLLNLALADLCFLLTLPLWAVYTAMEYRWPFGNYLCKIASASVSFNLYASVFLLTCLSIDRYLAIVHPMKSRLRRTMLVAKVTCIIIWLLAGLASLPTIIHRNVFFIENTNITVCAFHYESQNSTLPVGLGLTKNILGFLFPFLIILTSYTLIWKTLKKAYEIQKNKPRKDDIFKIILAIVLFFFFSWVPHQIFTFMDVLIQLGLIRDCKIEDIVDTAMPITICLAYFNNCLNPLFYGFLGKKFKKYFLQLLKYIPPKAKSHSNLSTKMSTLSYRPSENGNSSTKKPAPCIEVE
Kind of experiment: Displacement of [125I]angiotensin-2 from bovine adrenal cortex AT1 receptor. The format is tissue-based. In general terms: In a radioligand displacement assay an active substance lowers the binding of a labelled ligand.

The target in experiment [3] is T3, Type-1 angiotensin II receptor (Oryctolagus cuniculus) (UniProt P34976).
T3 sequence (whole entry): T1 sequence (P34976 whole entry)
Kind of experiment: Antagonist activity at AT1 receptor assessed inhibition of KCl-induced contraction of rabbit thoracic aortic rings. The format is functional.

For experiment [4], the system named is Rattus norvegicus. Kind of experiment: Inhibition of angiotensin-2-induced pressor response in normotensive rat at 1 mg/kg, po. The format is functional, organism-based. Also noted: dose 1 mg/kg.
Experiment [5] relates to Rattus norvegicus. Kind of experiment: Reduction of mean arterial pressure in spontaneously hypertensive rat at 1 mg/kg, po. The conditions noted are these: Artery. The format is functional, organism-based. The arrangement: dose 1 mg/kg.
Experiment [6] has as its target T3, Type-1 angiotensin II receptor (Oryctolagus cuniculus). Kind of experiment: Antagonist activity at AT1 receptor assessed inhibition of histamine-induced contraction of rabbit thoracic aortic rings. The format is functional.
For experiment [7], the system named is Rattus norvegicus. Kind of experiment: Decrease in mean arterial pressure in po dosed spontaneously hypertensive rat. The format is functional, organism-based. The conditions noted are these: Artery.
Experiment [8] has as its target T3, Type-1 angiotensin II receptor (Oryctolagus cuniculus). Kind of experiment: Antagonist activity at AT1 receptor assessed inhibition of norepinephrine-induced contraction of rabbit thoracic aortic rings. The format is functional.

Activity calls are given as the source filed them. The rule behind the calls is not given here.

Turning to `Cc1nc2cccc(C(=O)O)c2n1Cc1ccc(-n2cccc2C(=O)O)cc1`, in experiment [1], the Kb is 1.26 µM. The IC50 in experiment [2] was 0.25 µM.

Regarding `CCCCc1nc2cccc(C(=O)O)c2n1Cc1ccc(-n2cccc2-c2nnn[nH]2)cc1`, the outcome in experiment [3], in experiment [6] and in experiment [8] was inactive. Besides, the outcome in experiment [4] and in experiment [5] was Active. The Kb in experiment [1] was 0.00316 µM. Further, the Activity entry in experiment [7] is “Dose-dependent effect”. The compound also showed an IC50 in experiment [2] of 0.0069 µM.

Turning to `CCCc1nc2cccc(C(=O)O)c2n1Cc1ccc(-n2cccc2C(=O)O)cc1`, the Kb in experiment [1] was 0.1 µM. The compound also gave a half-inhibitory concentration (IC50) in experiment [2] of 0.092 µM.

In the case of `CCCCc1nc2cccc(C(=O)OCC)c2n1Cc1ccc(-n2cccc2-c2nnn[nH]2)cc1`, in experiment [1], the Kb was 0.0158 µM. In experiment [2], this compound returned an IC50 of 0.019 µM.

As for `CCCc1nc2cccc(C(=O)O)c2n1Cc1ccc(-n2cccc2-c2nnn[nH]2)cc1`, the Kb in experiment [1] is 0.00631 µM. Besides, in experiment [2], the IC50 came out at 0.016 µM.

With `CCCc1nc2cccc(C(=O)OC)c2n1Cc1ccc(-n2cccc2-c2nnn[nH]2)cc1`, the Kb in experiment [1] was 0.0126 µM. For the same compound, the half-inhibitory concentration (IC50) in experiment [2] came to 0.032 µM.

In the case of `CCCCc1nc2cccc(C(=O)O)c2n1Cc1ccc(-n2cccc2C(=O)O)cc1`, in experiment [1], the Kb was 0.01 µM. In experiment [2], this compound displayed an IC50 of 0.033 µM.

Turning to `CCCc1nc2cccc(C(=O)OCC)c2n1Cc1ccc(-n2cccc2-c2nnn[nH]2)cc1`, the Kb in experiment [1] was 0.0794 µM. In addition, in experiment [2], the 50% inhibitory concentration (IC50) is 0.041 µM.

Consider `COC(=O)c1cccc2nc(C)n(Cc3ccc(-n4cccc4-c4nnn[nH]4)cc3)c12`, for which the Kb in experiment [1] was 0.1 µM. In experiment [2], this compound came in with a concentration for half-maximal inhibition (IC50) of 0.2 µM.

As to `CCc1nc2cccc(C(=O)OC)c2n1Cc1ccc(-n2cccc2-c2nnn[nH]2)cc1`, the Kb in experiment [1] is 0.0316 µM. Besides, in experiment [2], the IC50 was 0.14 µM.

For `CCc1nc2cccc(C(=O)O)c2n1Cc1ccc(-n2cccc2C(=O)O)cc1`, the Kb in experiment [1] is 0.316 µM. In experiment [2], this compound returned an IC50 of 0.16 µM.

For the compound `CCCCc1nc2cccc(C(=O)OC)c2n1Cc1ccc(-n2cccc2-c2nnn[nH]2)cc1`, the result in experiment [3], in experiment [6] and in experiment [8] was inactive. In addition, the result in experiment [4] and in experiment [5] was Active. The Kb in experiment [1] is 0.00398 µM. For the same compound, in experiment [7], the Activity entry is “Dose-dependent effect”. In experiment [2], this compound yielded an IC50 of 0.0098 µM.
